Measurements from US11733243B2, “Use of acamprosate to modulate ERK1/2 activation in animal models for FXS and ASD and individuals diagnosed with FXS and ASD” (Indiana University Research and Technology Corporation, priority 2013, dated 2023).
“Also recorded” adds a separate entry of the source.

Legend:
[1] = test system: fmr1 knockout mice; conditions: mouse, in vivo; cited from earlier work
[2] = test system: subjects with FXS; conditions: cited from earlier work
[3] = test system: males with FXS; conditions: cited from earlier work
[4] = target: T1, mGluR5 (Mus musculus, UniProt Q3UVX5); conditions: in vivo; cited from earlier work
T1 construct: host or cells: fmr1 knockout mouse, in vivo
T1 sequence (Q3UVX5 19-1203): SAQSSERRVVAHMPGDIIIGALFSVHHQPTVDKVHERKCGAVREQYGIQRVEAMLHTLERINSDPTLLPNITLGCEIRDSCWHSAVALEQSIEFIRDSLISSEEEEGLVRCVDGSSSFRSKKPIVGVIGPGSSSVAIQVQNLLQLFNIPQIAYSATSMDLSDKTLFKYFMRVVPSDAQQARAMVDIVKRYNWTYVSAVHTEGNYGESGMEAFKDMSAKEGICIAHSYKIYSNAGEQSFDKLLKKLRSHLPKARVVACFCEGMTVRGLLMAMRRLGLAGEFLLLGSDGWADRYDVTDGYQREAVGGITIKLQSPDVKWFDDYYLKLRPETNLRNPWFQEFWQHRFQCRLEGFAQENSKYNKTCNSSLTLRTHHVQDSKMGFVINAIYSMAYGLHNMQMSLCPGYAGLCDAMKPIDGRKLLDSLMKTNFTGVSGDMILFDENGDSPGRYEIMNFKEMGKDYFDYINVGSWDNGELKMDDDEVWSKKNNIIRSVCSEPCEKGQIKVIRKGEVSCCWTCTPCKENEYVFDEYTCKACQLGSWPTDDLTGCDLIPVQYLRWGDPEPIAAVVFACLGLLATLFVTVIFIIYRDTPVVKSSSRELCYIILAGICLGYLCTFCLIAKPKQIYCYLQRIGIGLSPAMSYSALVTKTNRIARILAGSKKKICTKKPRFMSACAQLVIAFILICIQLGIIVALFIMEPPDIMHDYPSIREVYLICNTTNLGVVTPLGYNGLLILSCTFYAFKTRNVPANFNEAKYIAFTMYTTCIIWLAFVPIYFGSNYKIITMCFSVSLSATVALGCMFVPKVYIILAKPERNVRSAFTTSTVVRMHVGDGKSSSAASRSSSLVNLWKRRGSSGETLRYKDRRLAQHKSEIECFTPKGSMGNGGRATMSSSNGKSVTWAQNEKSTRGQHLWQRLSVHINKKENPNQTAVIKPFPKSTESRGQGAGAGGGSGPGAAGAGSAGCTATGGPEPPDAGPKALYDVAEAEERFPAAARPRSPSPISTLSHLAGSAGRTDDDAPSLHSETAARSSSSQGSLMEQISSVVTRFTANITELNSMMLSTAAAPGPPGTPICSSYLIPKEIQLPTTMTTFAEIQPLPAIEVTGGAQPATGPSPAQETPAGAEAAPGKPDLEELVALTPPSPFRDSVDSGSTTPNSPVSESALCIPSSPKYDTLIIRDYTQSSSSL

[5] = test system: alcohol intake; conditions: mouse, in vivo; cited from earlier work
[6] = test system: alcohol withdrawal associated anxiety; conditions: in vivo; cited from earlier work
[7] = test system: ERK/MAPK; assay: ICC of fixed lymphocytes for ERK/MAPK activity (anti-phospho-Thr202/Tyr204); assay type: cell-based, human; conditions: tamoxifen, 10 mM
Description: Lymphocyte samples were prepared from patient's blood and plated onto a PDL-coated 24-well plate. Cells were fixed by adding 4% paraformaldehyde in PB solution (at RT). Excess paraformaldehyde solution was aspirate out. The fixed cells were washed three times gently with cold DPBS (Bulbecco-modified phosphate buffered saline). Then 0.12% Triton X-100 (diluted in DPBS) was added onto the cells at RT and incubated for 20 minutes at RT. Excess Triton X solution was aspirated out and cells were washed three times (gently) with chilled DPBS. Cells were blocked with 10% horse serum (HS) (diluted in DPBS) for 20 minutes at RT. Unbound blocking agent was washed off. The primary antibody diluted in 1% HS in DPBS was added. Generally a dilution of 1:250 was used. The antibody, which is raised in rabbit recognizes Phospho-Thr202/Tyr204 of ERK/MAPK, which indicates translocation of activated ERK/MAPK into the […] compartment.
Incubation with the primary antibody was done for overnight at 4° C. Unbound primary antibody was washed off, and at this stage the plate can be stored at 4° C. Washed three times at RT with cold DPBS. Added Alexa Fluor conjugated goat anti rabbit (diluted 1:200 in DPBS) and incubated at RT for 1-2 hr. This reagent and this step is light sensitive to. For best results the reagent and this step of the procedure should be kept away from the light. […]

[8] = test system: fmr1 KO mice; conditions: mouse, in vivo; cited from earlier work
[9] = test system: adults with FXS; conditions: single dose, cited from earlier work
[10] = test system: cerebellar granule cells from fmr1 knockout mice; conditions: cited from earlier work
[11] = test system: persons with FXS and comorbid ASD; conditions: 6 persons; cited from earlier work
[12] = test system: ERK1/2; conditions: adults with FXS; cited from earlier work

NC[C@H](CC(=O)O)c1ccc(Cl)cc1 (single isomer, unassigned) [STX209]
effect on protein synthesis and dendritic spines [1]: correction of aberrant protein synthesis and dendritic spine abnormalities
ABC Irritability (ABC-I) subscale, primary outcome measure ([2]; 63 subjects aged 6 to 40 years): not associated with improvement on the primary outcome measure
ABC-SW and VABS Socialization, post-hoc 27 subject subset with baseline ABC-SW >8 ([2]; human, in vivo): significant STX209-associated improvement
Social Avoidance scale (ABC-SA), post-hoc analysis ([2]; human, in vivo): significant group-wide improvement
subjects reporting sedation ([2]; human, in vivo): 8%
tolerability ([2]; human, in vivo): well tolerated

COC(=O)N1CC[C@@H]2[C@H]1CCC[C@@]2(O)C#Cc1cccc(C)c1 [AFQ056]
group treatment effect ([3]; 30 males with FXS aged 18 to 35 years): not associated with significant group treatment effect
response in 7 subject subset with full fmr1 gene methylation ([3]; ABC subscales and total, CGI-I, Visual Analogue Scale, Repetitive Behavior Scale-Revised): significant response to AFQ056 compared to placebo

Cc1cccc(C#Cc2ccccc2)n1 [MPEP, 2-methyl-6-(phenylethynyl)-pyridine]
effect on phenotypic characteristics of the fmr1 mouse model [4]: reverse phenotypic characteristics, including audiogenic seizures, altered pre-pulse inhibition (PPI), and open field hyperactivity

Cc1nc(C#Cc2cccnc2)cs1 [MTEP, 3-((2-Methyl-4-thiazolyl)ethynyl)pyridine]
alcohol intake [5]: reduced alcohol intake
alcohol withdrawal associated anxiety effects [6]: reduce alcohol withdrawal associated anxiety effects

CC/C(=C(\c1ccccc1)c1ccc(OCCN(C)C)cc1)c1ccccc1 [Tamoxifen]
ERK activation and translocation of ERK/MAPK (positive control) [7]: induces ERK activation; also recorded: cytoplasmic localization of ERK 1/2

CC(=O)[C@H]1CC[C@H]2[C@@H]3CC[C@H]4C[C@H](O)CC[C@]4(C)[C@H]3C(=O)C[C@]12C [alphaxalone]
effect on phenotype of fmr1 KO mice [8]: reductions in anxiety and rescue of audiogenic seizures

CN1CC(=O)NC1=NC(=O)Nc1cccc(Cl)c1 [fenobam]
subjects experiencing mild sedation ([9]; 12 adults with FXS): 25%
subjects who experienced clinical benefit ([9]; 12 adults with FXS, reductions in hyperactivity and anxiety): 75%
pharmacokinetics [9]: variable pharmacokinetics
tolerability [9]: good tolerability

Oc1noc2c1CCNC2 [gaboxadol]
effect on phenotype of fmr1 KO mice [8]: restored neuron excitability deficits in the amygdala, reduced hyperactivity, and reduced PPI deficits

CC12CC3CC(C)(C1)CC(N)(C3)C2 [memantine]
dendritic spine development and synapse formation [10]: correction of dendritic spine development and synapse formation
subjects who developed treatment limiting irritability [11]: Two
subjects with clinical response (CGI-I very much improved or much improved) [11]: 67%

Nc1nc2ccc(OC(F)(F)F)cc2s1 [riluzole]
ERK1/2 activation rates [12]: modifies ERK1/2 activation rates

NCCS(=O)(=O)O [taurine]
effect on phenotype of fmr1 KO mice [8]: Improvements in memory acquisition and retention
